In patent publication US20040039027A1, “Benzimidazole compounds, process for producing the same and use thereof” (priority 2000, published 2004):

Experiment: Stability test in artificial gastric juice
Type: physicochemical
Conditions: artificial gastric juice with acetonitrile, pH 1.2, artificial gastric juice pH ca. 1.2 with acetonitrile, 37° C.; calculated assuming pseudo-first-order decomposition
Experimental: Stability Test in Artificial Gastric Juice
2-[[[3-Methyl-4-(2,2,2-trifluoroethoxy)-2-pyridyl]methyl]sulfinyl]-1H-benzimidazole(lansoprazole) and the compounds (ca. 1-2 mg) of Examples 1, 2 and 18 were respectively dissolved in acetonitrile (1 mL). To each solution (0.2 mL) were added acetonitrile (1 mL) and artificial gastric juice (3 mL, a solution prepared by dissolving sodium chloride (2.0 g) in hydrochloric acid (7.0 mL) and adding water to the amount of 1000 mL, pH ca. 1.2), and the stability of each compound after preservation at 37° C. was examined. Samples were taken immediately after addition of acetonitrile and artificial gastric juice, and 4, 8, 12, 16 and 20 hours thereafter, analyzed under the following HPLC analysis conditions, and the half-life was calculated on the assumption that the decomposition of the compound was a pseudo-first-order reaction. […]
detection wavelength: UV 285 nm column: YMC Pro C18 75 mm×4.6 mm I.D. mobile phase: the proportion of mobile phase A (0.01 mol/L aqueous ammonium acetate solution) and mobile phase B (acetonitrile) was changed with the lapse of time as in the following.
10 min. from immediately after addition: mobile phase A/mobile phase B=60/40→10/90 10 min. to 15 min.: mobile phase A/mobile phase B=10/90
15.1 min. to 20 min.: mobile phase A/mobile phase B=60/40 flow rate: 1.0 mL/min. column temperature: 25° C.

Cc1c(OCC(F)(F)F)ccnc1C[S+]([O-])c1nc2ccccc2[nH]1 (stereo not drawn) [lansoprazole, 2-[[[3-Methyl-4-(2,2,2-trifluoroethoxy)-2-pyridyl]methyl]sulfinyl]-1H-benzimidazole, reference compound]
half-life: < 0.03 h

CCCOC(=O)OCn1c([S+]([O-])Cc2nccc(OCC(F)(F)F)c2C)nc2ccccc21 (stereo not drawn) [Example 18, [2-[[[3-Methyl-4-(2,2,2-trifluoroethoxy)-2-pyridinyl]methyl]sulfinyl]-1H-benzimidazol-1-yl]methyl propyl carbonate]
half-life: ≥ 4 h

Cc1c(OCC(F)(F)F)ccnc1C[S+]([O-])c1nc2ccccc2n1COC(=O)c1ccccc1 (stereo not drawn) [Example 1, [2-[[[3-Methyl-4-(2,2,2-trifluoroethoxy)-2-pyridinyl]methyl]sulfinyl]-1H-benzimidazol-1-yl]methyl benzoate]
half-life: ≥ 4 h
